Columns and labels:
L1210 [1] = assay: Compound was tested for the inhibition of the transport of aminoisobutyric acid into L1210 cells at the 10 uM concentration after <20 min; type: functional; details: Mus musculus
L1210 [2] = assay: Compound was tested for the inhibition of the transport of methionine into L1210 cells at the 10 uM concentration after <20 min; type: functional; details: Mus musculus

| Sequence | inhibition (L1210 [1]) [%] | inhibition (L1210 [2]) [%] |
| --- | --- | --- |
| CISPLATIN | 15 | 10 |
| TRANSPLATIN | < 5 | < 5 |

Reference: ChEMBL document CHEMBL1123175, “Synthesis and biological activity of several amino nucleoside-platinum(II) complexes” (1986)
